Source: patent publication US8318782B2, “Mitotic kinesin inhibitor” (Kyowa Hakko Kirin Co., Ltd., priority 2003, dated 2012)
pIC50: −log10 of the molar value.

Molecular target: T1, human Eg5 motor domain (Homo sapiens, UniProt P52732)
T1 construct: A plasmid expressing the motor domain of human Eg5 was constructed; made in house; host or cells: Escherichia coli BL21 (DE3)
T1 sequence (P52732 18-359 limits assumed): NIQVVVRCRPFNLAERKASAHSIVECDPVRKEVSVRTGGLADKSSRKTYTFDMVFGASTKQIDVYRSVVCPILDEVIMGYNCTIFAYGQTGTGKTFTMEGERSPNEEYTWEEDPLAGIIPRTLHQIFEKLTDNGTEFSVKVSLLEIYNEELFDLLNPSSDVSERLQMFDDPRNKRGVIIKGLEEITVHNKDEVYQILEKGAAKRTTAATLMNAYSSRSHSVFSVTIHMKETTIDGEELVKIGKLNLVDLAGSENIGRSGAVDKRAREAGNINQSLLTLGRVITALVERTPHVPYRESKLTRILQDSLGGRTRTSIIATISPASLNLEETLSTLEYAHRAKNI
Assay: Eg5 enzyme inhibition test (2) (ATPase activity, Eg5 motor domain)
Assay type: biochemical
Settings: human Eg5 motor domain purified sample, 30° C. for 30 minutes, absorbance at 360 nm
Procedure: A recombinant human Eg5 motor domain protein was prepared by referring to the literature [Biochemistry, Vol. 35, p. […] A plasmid expressing the motor domain of human Eg5 was constructed, and transformed into Escherichia coli BL21 (DE3). The transformant was cultured at 25° C., and when OD600 reached 0.74, isopropyl-β-D-thiogalactoside was added at a final concentration of 0.5 mmol/L. The transformant was further cultured for 4 hours, and then the culture medium was centrifuged to collect the cells. The cells were suspended in a buffer and ultrasonicated, and then the sonicated solution was centrifuged to recover the supernatant. The supernatant was purified by cation exchange column chromatography to obtain a partially-purified sample. Furthermore, the partially purified sample was purified by gel filtration column chromatography to obtain a finally purified sample.
Measurement of the ATPase activity of Eg5 was carried out by referring to the literatures EEMBO Journal, Vol. 13, p. […] Solution A was dispensed into each well of a 96-well plate as 45 μL portions. Solution B was used to serially dilute a test compound. The diluted test compound solutions in a volume of 30 μL were mixed with Solution A added beforehand in each well of the 96-well plate to start the enzymatic reaction. The enzymatic reaction was performed at 30° C. for 30 minutes.

Row | SMILES | pIC50
1 | CC(C)C(=O)NC1=NN(C(=O)C(C)C)C(CCNS(C)(=O)=O)(c2ccccc2)S1 (stereo not shown) [Compound 100] | ≥ 5.70
2 | CC(C)(C)C(=O)NC1=NN(C(=O)C(C)(C)C)C(CCC(=O)NCCO)(c2ccccc2)S1 (stereo not shown) [Compound 111] | ≥ 5.70
3 | CC(C)(C)C(=O)NC1=NN(C(=O)C(C)(C)C)C(CCC(N)=O)(c2ccccc2)S1 (stereo not shown) [Compound 107] | ≥ 5.70
4 | CCNCCS(=O)(=O)NCC1(c2ccccc2)SC(NC(=O)C(C)(C)C)=NN1C(=O)C(C)(C)C (stereo not shown) [Compound 176] | ≥ 5.70
5 | CC(=O)N1N=C(N2CCCC2=O)SC1(CNS(C)(=O)=O)c1ccccc1 (stereo not shown) [Compound 152] | ≥ 5.70
6 | CC(=O)N1N=C(NC(=O)C(C)(C)C)SC1(CNS(=O)(=O)CCN(C)C)c1ccccc1 (stereo not shown) [Compound 174] | ≥ 5.70
7 | CC(C)(C)C(=O)NC1=NN(C(=O)C(C)(C)C)C(CCN)(c2ccccc2)S1 (stereo not shown) [Compound 210] | ≥ 5.70
8 | CC(C)(C)C(=O)NC1=NN(C(=O)C(C)(C)C)C(CNS(C)(=O)=O)(c2ccccc2)S1 (stereo not shown) [Compound 95] | ≥ 5.70
9 | CC(C)(C)C(=O)NC1=NN(C(=O)C(C)(C)C)C(CNS(=O)(=O)CCCN)(c2ccccc2)S1 (stereo not shown) [Compound 221] | ≥ 5.70
10 | CN(C)CCCS(=O)(=O)NCC1(c2ccccc2)SC(NC(=O)C(C)(C)C)=NN1C(=O)C(C)(C)C (stereo not shown) [Compound 238] | ≥ 5.70

More lines, now with the values ahead:

Row | pIC50 | SMILES
11 | ≥ 5.70 | CCN(C)CCS(=O)(=O)NCC1(c2ccccc2)SC(NC(=O)C(C)(C)C)=NN1C(=O)C(C)(C)C (stereo not shown) [Compound 264]
12 | ≥ 5.70 | CN(C)CCC1(c2ccccc2)SC(NC(=O)C(C)(C)C)=NN1C(=O)C(C)(C)C (stereo not shown) [Compound 104]
13 | ≥ 5.70 | CCS(=O)(=O)NCC1(c2ccccc2)SC(NC(=O)C(C)(C)C)=NN1C(=O)C(C)(C)C (stereo not shown) [Compound 97]
14 | ≥ 5.70 | C=CS(=O)(=O)NCC1(c2ccccc2)SC(NC(=O)C(C)(C)C)=NN1C(=O)C(C)(C)C (stereo not shown) [Compound 171]
15 | ≥ 5.70 | CC(=O)N1N=C(N2CCCCC2=O)SC1(CNS(C)(=O)=O)c1ccccc1 (stereo not shown) [Compound 154]
16 | ≥ 5.70 | CC(=O)NC1=NN(C(C)=O)C(C)(c2sccc2Cl)S1 (stereo not shown) [Compound 134]
